Test results taken from ChEMBL document CHEMBL1146540, “Bioactive constituents from three Vismia species” (2003).
Converted amounts (≈) assume the structure as drawn. The source made the active and inactive calls. The calls are words filed in the database; no cut-off is given here.

What was measured:
Format in all cases: functional
MCF7 = test: Cytotoxicity against human MCF7 cells
NCI-H460 = test: Cytotoxicity against human H460 cells
SF-268 = test: Cytotoxicity against human SF268 cells

Row | SMILES | Activity (MCF7) | Activity (NCI-H460) | Activity (SF-268) | GI50 (MCF7) [µg/mL] | GI50 (NCI-H460) [µg/mL] | GI50 (SF-268) [µg/mL]
1 | COc1cc2c(c(O)c1/C=C/C(C)C)C(=O)c1c(O)cc(C)cc1C2=O | inactive | inactive | inactive |  |  | 
2 | COc1cc2c(c(O)c1/C=C/C(C)C)C(=O)c1c(O)cc(C)cc1C2C1c2cc(C)cc(O)c2C(=O)c2c1cc(OC)c(/C=C/C(C)C)c2O (stereo not given) | inactive | inactive | inactive |  |  | 
3 | COc1cc2cc3c(c(O)c2c(O)c1/C=C/C(C)C)C(=O)CC(C)(O)C3 (stereo not given) [DEACETYLVISMIONE A] |  |  |  | 1.8 (≈ 5.05 µM) | 1.9 (≈ 5.33 µM) | 2.2 (≈ 6.17 µM)
4 | CC(C)=CCOc1cc(O)c2c(O)c3c(cc2c1)CC(C)(O)CC3=O (stereo not given) [DEACETYLVISMIONE H] |  |  |  | 0.4 (≈ 1.17 µM) | 0.6 (≈ 1.75 µM) | 0.6 (≈ 1.75 µM)
5 | CC(C)=CCc1c(C)cc2cc3c(c(O)c2c1O)C(=O)C=C(O)C3(CC=C(C)C)CC=C(C)C [FERRUGININ A] |  |  |  | 5 (≈ 10.9 µM) | 3.3 (≈ 7.16 µM) | 4.9 (≈ 10.6 µM)
6 | CC(C)=CCC1=C(O)C(CC=C(C)C)(CC=C(C)C)c2cc3cc(C)cc(O)c3c(O)c2C1=O [FERRUGININ B] |  |  |  | 5 (≈ 10.9 µM) | 5 (≈ 10.9 µM) | 4 (≈ 8.68 µM)
7 | CC(C)=CCC1=C(O)C(CC=C(C)C)(CC=C(C)C)c2cc3c(CC=C(C)C)c(C)cc(O)c3c(O)c2C1=O [FERRUGININ C] |  |  |  | 4.8 (≈ 9.08 µM) | 5.4 (≈ 10.2 µM) | 4 (≈ 7.57 µM)
8 | CC(C)=CCc1c(C)cc(O)c2c(O)c3c(cc12)C(CC=C(C)C)(CC=C(C)C)C(O)=CC3=O [HARUNGANIN] |  |  |  | 6 (≈ 13 µM) | 6.4 (≈ 13.9 µM) | 6 (≈ 13 µM)
9 | CC(C)=CCC1(CC=C(C)C)C(O)=CC(=O)c2c1cc1cc(C)cc(O)c1c2O [VISMIN] |  |  |  | 5.2 (≈ 13.2 µM) | 7.3 (≈ 18.6 µM) | 5.7 (≈ 14.5 µM)
10 | COc1cc2cc3c(c(O)c2c2c1C=CC(C)(C)O2)C(=O)CC(C)(O)C3 (stereo not given) [VISMIONE B] |  |  |  | 1.6 (≈ 4.51 µM) | 2.8 (≈ 7.9 µM) | 2.5 (≈ 7.05 µM)
